Measurements from patent US20100003217A1, “Compounds and Pharmaceutical Compositions for the Treatment of Viral Infections” (priority 2008, published 2010).
“And” between values parts separate entries of the source, which are not always exact repeats. Equal values may be shown once.

Experiments:
pig liver esterase = experiment: Incubation with pig liver esterase; format: in vitro ADME; details: for Residual compound following incubation with pig liver esterase: Esterase 14 U, 60 min, 10 μM
Procedure: Pig liver esterase (14 U) suspended in incubation buffer (0.1 M potassium phosphate, pH 7.4) was incubated for 60 min at 37° C. with 10 μM Compound 1 from a stock solution in DMSO (final DMSO concentration was 0.1%); reaction was initiated with the addition of test article. Incubations with no protein served as controls. Reactions were terminated by the addition of 0.1 mL of stop solution (acetonitrile). The samples were vortex-mixed for 30 sec and then centrifuged at 10,000×g for 10 min. The supernatant was dried using a Labconco CentriVap concentrator and the dry residue reconstituted in water, transferred to an HPLC glass vial and analyzed by HPLC-UV method 2 (described above).
Metabolic stability of the proposed metabolites was conducted by incubating the chemically synthesized standards Compound 2, Compound 4 and Compound 3 as described above for Compound 1. When possible, formation of Compound 5 was verified by incubating samples with alkaline phosphatase (10 U) for 60 min at 37° C.

[1] = Metabolite profile in rat urine; format: in vivo, male Sprague-Dawley rats; details: for Percent of Dose, Urine 0-24 h: after [14C]Compound 1; for % AD, estimated: from single animal HPLC distribution and mean % AD; for Total % AD, estimated / Total % AD: total of all collections; for % of total urinary excretion / Total % AD: group 1C (IV dose) urine
Procedure: Pooled urine samples were prepared for Groups 1C and 2C by mixing a fixed percent of the total volume for all four animals from the selected time points. For Group 1C, samples of the 1-, 2-, 6-, and 24-h collection intervals were pooled. For Group 2C, a pool of samples from all four animals was prepared for the 24 h collection intervals only. For 1-, 2-, and 6 h collection intervals, a urine sample of a single animal of Group 2A or 2B was used for analysis. All samples were brought to room temperature and vortexed briefly. The samples were diluted as necessary (2- to 20-fold) with appropriate aqueous mobile phase for the selected HPLC method. The pooled and diluted samples from the 24 h collection interval were centrifuged at 2040×g for 10 minutes. All other samples were analyzed without centrifugation. HPLC method 1 was used for HPLC profiling. Selected samples were analyzed by HPLC method 2 for comparison with the metabolite profile generated by microsomal and hepatocyte incubations (Examples 14 and 15) and with the metabolite profile of liver extracts.
Percent of the administered dose (% AD) for parent drug and each metabolite at each collection period=(% of the total radioactivity in the sample attributed to the metabolite)*(total radioactivity expressed as % of the administered dose, recovered during the corresponding collection period).
HPLC analyses of pooled urine samples of all time points were conducted for Group 1C. Metabolites R1, R2, R3, R4, R5, R6, R7 and R8 were characterized based on retention time.
For the PO dose group, a pooled urine sample from the 24-h collection time was analyzed. For 1-, 2-, and 6-h collection times, the majority of the samples had been used for radioanalysis. The remaining samples were insufficient for proportional pooling. Therefore, single animal samples of […] groups were used for HPLC profiling. Metabolites R^1, R^2, R^3, R^4, R^5, R^6, R^7 and R^8 were characterized based on retention time.
Table 50 contains data from single animal samples and pooled samples. To estimate overall distribution of urinary metabolites, it was assumed that the profile from a single animal is reflective of the overall average metabolite profile. Therefore, HPLC distribution data from single animals was used to calculate the percentage of administered dose excreted as various metabolites during the 1-, 2-, and 6-h collection intervals. Metabolites R1, R2, R3, R4, R5, R6, R7 and R8 were characterized based on retention time.

[2] = PO dose urine, 1 h collection, single animal (#15, Group 2A)
[3] = PO dose urine, 2 h collection, single animal (#20, Group 2B)
[4] = estimated profile table, group 2C (PO dose) urine, 24 h
[5] = estimated profile, group 2C (PO dose) urine
[6] = estimated profile, group 2C (PO dose) urine, 2 h
[7] = estimated profile, group 2C (PO dose) urine, 2 h, single animal % HPLC distribution
[8] = group 1C (IV dose) pooled urine, 1 h collection
[9] = group 1C (IV dose) pooled urine, 2 h collection
[10] = group 1C (IV dose) pooled urine, 6 h collection
[11] = group 1C (IV dose) pooled urine, 24 h collection
[12] = group 2C (PO dose) pooled urine, 24 h collection

| Compound | Residual compound following incubation with pig liver esterase (pig liver esterase) [%] | Percent of Dose, Urine 0-24 h ([1]; IV) | Percent of Dose, Urine 0-24 h ([1]; Oral) | % AD (percent of administered dose) [1, 3] [% AD] | % HPLC (percent of HPLC peak area in the sample extract) [1, 3] [%] | % of total urinary excretion, estimated [1, 5] [%] | % AD, estimated [1, 6] [% AD] | % HPLC (percent of HPLC peak area in the sample extract) [1, 7] [%] | Total % AD, estimated [1, 5] [% AD] | % AD (percent of administered dose) [1, 8] [% AD] | % HPLC (percent of HPLC peak area in the sample extract) [1, 8] [%] | % AD (percent of administered dose) [1, 9] [% AD] | % HPLC (percent of HPLC peak area in the sample extract) [1, 9] [%] | % AD (percent of administered dose) [1, 10] [% AD] | % HPLC (percent of HPLC peak area in the sample extract) [1, 10] [%] | % AD (percent of administered dose) [1, 11] [% AD] | % HPLC (percent of HPLC peak area in the sample extract) [1, 11] [%] | % of total urinary excretion [1] [%] | Total % AD [1] [% AD] | also measured |
| --- | --- | --- | --- | --- | --- | --- | --- | --- | --- | --- | --- | --- | --- | --- | --- | --- | --- | --- | --- | --- |
| CC(C)(CO)C(=O)SCCOP(=O)(NCc1ccccc1)OC[C@H]1O[C@@H](n2cnc3c(=O)[nH]c(N)nc32)[C@](C)(O)[C@@H]1O (mixture of isomers) [Compound 1, 3-hydroxy-2,2-dimethyl-thiopropionic acid S-(2-{[(2R,3R,4R,5R)-5-(2-amino-6-oxo-1,6-dihydro-purin-9-yl)-3,4-dihydroxy-4-methyl-tetrahydro-furan-2-ylmethoxy]-benzylamino-phosphoryloxy}-ethyl) ester] | 75 | 26.1% of Dose | 0.02% of Dose | 0.01 | 6.57 | 0.73 | 0.003 | 6.57 | 0.02 | 21.39 | 93.5 | 2.50 | 48.9 | 0.71 | 30.5 | 1.51 | 9.09 | 55.6 | 26.1 | Compound 1 converted to Compound 2 (pig liver esterase; pig liver esterase, 60-min incubation): 25%; Total excretion (% AD), urine ([1]; IV (1C)): 26.1 % AD; Total excretion (% AD), urine ([1]; PO (2C), urine data estimated): 0.02 % AD; % AD (percent of administered dose) [1, 2]: 0.06 % AD; % HPLC (percent of HPLC peak area in the sample extract) [1, 2]: 74.8%; % AD [1, 4]: 0.01 % AD; % HPLC (percent of HPLC peak area in the sample extract) [1, 4]: 0.30%; % AD, estimated ([1]; estimated profile, group 2C (PO dose) urine, 1 h): 0.01 % AD; % HPLC (percent of HPLC peak area in the sample extract) ([1]; estimated profile, group 2C (PO dose) urine, 1 h, single animal % HPLC distribution): 74.8%; % AD (percent of administered dose) [1, 12]: 0.01 % AD; % HPLC (percent of HPLC peak area in the sample extract) [1, 12]: 0.30%; % of the total urinary excretion ([1]; rat urine, IV dose 50 mg/kg): 55.6%; urinary component, % of the administered dose (% AD) ([1]; rat urine, IV dose 50 mg/kg, 0-24 h, 50 mg/kg): 26.1 % AD and 26 % AD; urinary component, estimated % of the administered dose (% AD) ([1]; rat urine, PO dose 100 mg/kg, 0-24 h): 0.02 % AD; % of the total radioactivity eliminated via urine within one hour ([1]; rat urine, PO dose, 1-h time point): 74.8%; % of the total urinary excretion by 6 h ([1]; rat urine, PO dose, 6 h): 6.6% |
| C[C@@]1(O)[C@H](O)[C@@H](COP(=O)(O)NCc2ccccc2)O[C@H]1n1cnc2c(=O)[nH]c(N)nc21 [Compound 2, [(2R)-2-methyl-β-D-ribofuranosyl]guanine-N-benzylaminyl-5′-monophosphate] | 0 | 0.76% of Dose | 0.001% of Dose | 0.002 | 1.81 | 0.03 | 0.001 | 1.81 | 0.001 | 0.52 | 2.29 | 0.13 | 2.57 | 0.03 | 1.40 | 0.07 | 0.45 | 1.62 | 0.76 | – |
